Test results published in PubChem BioAssay (NCI).
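All cell lines were grown in 96-well plates and treated with compound for 48 hours. GI50 = concentration required for 50% inhibition of growth. TGI: total growth inhibition.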

Key:
Assay in all cases: growth of human tumour cells (NCI), 48 h
[1] = system: HS 578T breast
[2] = system: RPMI-8226 leukemia
[3] = system: SF-539 CNS
[4] = system: SW-620 colon
[5] = system: T-47D breast
[6] = system: UO-31 renal

Row | Structure (SMILES) | TGI [1] [µM] | TGI [2] [µM] | TGI [3] [µM] | TGI [4] [µM] | TGI [5] [µM] | TGI [6] [µM] | GI50 [3] [µM] | GI50 [4] [µM]
1 | S=c1[nH]nc(NNc2ccccc2)n1Nc1ccccc1 | > 100 | > 100 | > 73.6 | > 100 | > 59.6 | > 100 | – | –
2 | O=c1ccn(C2OC(CN(O)CCC3C(CO)OC(n4ccc(=O)[nH]c4=O)C3O)C(O)C2O)c(=O)[nH]1 (stereo not drawn) | > 100 | > 100 | – | > 100 | > 100 | > 100 | – | –
3 | O=C(CSC1=NNC2(C(=O)N1)c1ccccc1-c1ccccc12)NC(=S)Nc1ccccc1 | – | > 10 | > 10 | > 10 | > 10 | > 10 | – | –
4 | CC(=O)ON(C(C)=O)c1ccc(-c2nc3ccccc3s2)cc1C | > 100 | > 100 | > 100 | > 100 | – | > 100 | – | –
5 | Cc1c(C)c(S(=O)(=O)N(CCCCCON)OCCCN)c(C)c2c1OC(C)(C)CC2 | 41.7 | 32 | 28.5 | 33.2 | 16.8 | 30.2 | – | –
6 | COc1ccc(NC2CC(C)N(C(=O)c3ccccc3)O2)cc1 (stereo not drawn) | > 10 | > 10 | > 10 | > 10 | > 10 | > 10 | – | –
7 | COC(=O)c1c(-c2ccccc2)c2sc3ccccc3n2c1N | – | > 100 | > 100 | – | 87.5 | > 100 | – | –
8 | Nc1nc(N)c2nc(CNc3ccc(C(=O)NC(CCCCNC(=O)c4ccccc4C(=O)O)C(=O)O)cc3)cnc2n1 (stereo not drawn) | > 100 | > 100 | – | > 100 | > 100 | > 100 | 0.026 | 0.00342
9 | Cn1c2ccccc2c(=O)c2[nH]c3ccccc3c21 | – | > 100 | > 100 | > 100 | > 100 | > 100 | – | –
10 | c1ccc(CC2(c3cc4ccccc4[nH]3)OCCO2)nc1 | > 100 | > 100 | > 100 | > 100 | > 100 | > 100 | – | –
11 | CC(C)C(NCc1c(O)ccc2c(-c3ccccc3)cc(=O)oc12)C(=O)O (stereo not drawn) | > 100 | > 100 | > 100 | > 100 | > 100 | > 100 | – | –
12 | N#CC(C#N)=Cn1c(=S)[nH]c2ccccc21 | > 100 | > 100 | > 100 | > 100 | > 100 | > 100 | – | –
13 | O=C(NNC(=O)c1ccccc1O)c1ccc(O)cc1 | > 100 | > 100 | > 100 | > 100 | > 100 | > 100 | – | –
14 | CC(=O)c1sc(=N)n(-c2c(C)cccc2C)c1C | > 100 | > 100 | > 100 | > 100 | > 100 | > 100 | – | –
15 | Cc1cc(-c2nc3cccc(F)c3s2)ccc1N | > 90.8 | > 100 | > 100 | > 100 | > 100 | > 100 | – | –
16 | CN(C)Cc1cc(N=Nc2ccc(Cl)cc2)ccc1OC(=O)c1ccccc1 | 46.9 | 40.7 | 34.5 | 30.5 | – | 25.2 | – | –
17 | CC1=NN(C(=O)CC(=O)Nc2cccc(Cl)c2)C(=O)C1N=Nc1ccc(C(=O)O)cc1 (stereo not drawn) | > 100 | > 100 | > 100 | > 100 | > 100 | > 100 | – | –
18 | CN(C)CC1CN=C(NC(=O)Nc2ccccc2)O1 (stereo not drawn) | > 100 | > 100 | > 100 | > 100 | > 100 | > 100 | – | –
19 | Cc1nc2c(=O)n3c4c(cccc4c2o1)CCC3 | > 100 | > 100 | > 100 | > 100 | > 100 | > 100 | – | –
20 | O=C1c2ccccc2-c2c1c(-c1cccc(Br)c1)nc1ccc3ccccc3c21 | > 100 | > 100 | > 100 | > 100 | > 100 | > 100 | – | –
21 | C=C(C)C12CC3CC/C(=N/O)C(C1)C3(N1CCOCC1)C/C2=N/O (stereo not drawn) | > 100 | > 100 | > 100 | > 100 | > 100 | > 100 | – | –
22 | COc1ccc(N2C(=O)CC(c3c[nH]c4ncccc34)C2=O)cc1 (stereo not drawn) | > 100 | > 100 | > 65.3 | 40.7 | 50.4 | > 100 | – | –
23 | Cc1ncc([N+](=O)[O-])n1CCNC(=O)Cn1c([N+](=O)[O-])cnc1C | > 100 | – | > 100 | > 100 | > 100 | > 100 | – | –
24 | CCOC(=O)C(=O)C(CCC(=O)c1ccc2ccccc2c1O)C(=O)OCC (stereo not drawn) | > 100 | > 100 | > 100 | > 100 | > 100 | > 100 | – | –
25 | C[C@]12CC[C@H](O)CC1=CC[C@@H]1C2CC[C@]2(C)Nc3c(cnn3-c3ccc(F)cc3)CC12 (stereo partly drawn) | 22.2 | – | 4.44 | > 100 | > 100 | > 92.4 | – | –
26 | OC(C/C=N/Nc1ccccc1)(C(F)(F)Cl)C(F)(F)Cl | > 10 | – | > 10 | > 10 | > 10 | > 10 | – | –
27 | C=CCn1c(-c2ccc(-c3cs/c(=N\N=O)n3CC=C)cc2)cs/c1=N\N=O | > 100 | – | > 100 | > 100 | > 100 | > 100 | – | –
28 | COc1ccc(CCc2nccn2C)cc1OC | > 100 | > 100 | > 100 | > 100 | – | > 100 | – | –
29 | CC(C)(C)C1CCC2c3c([nH]c4ccccc34)C3C(=O)N(c4ccc5c(c4)C(=O)c4ccccc4C5=O)C(=O)C3C2C1 (stereo not drawn) | > 100 | > 100 | > 100 | > 100 | > 100 | – | – | –
30 | S=C1N=C(Cl)/C(=C\c2ccccc2)N1 | > 100 | > 100 | > 100 | > 100 | > 100 | > 100 | – | –
